Converted amounts (≈) assume the structure as drawn.
How the values were obtained:
S. aureus ATCC 25923 = experiment: microbe, parasite or virus in culture
Text: (§1) Clinical S. aureus strains were collected from patients with atopic dermatitis during their visits to the Outpatient Clinic and hospitalization in the Department of Dermatology, Venereology and Allergology at Medical University of Gdańsk (following the approval from the ethics committee, Approval Number NKBBN/242–477/2014). Reference strains of S. aureus ATCC 25923, S. aureus ATCC 33591, S. aureus ATCC 9144, and S. aureus ATCC 12598 were obtained from the American Type Culture Collection. All the strains were stored at − 80 °C in Roti®-Store cryo vials (Carl Roth GmbH, Karlsruhe, Germany) and before the tests were transferred into fresh Mueller–Hinton Medium (BioMaxima, Lublin, Poland) and incubated for 24 h at 37 °C. Subsequently, each bacterial inoculum was seeded on Mueller–Hinton agar plates (BioMaxima) and incubated again for 24 h. The cultures prepared in this way were used in further antimicrobial assays. Minimum inhibitory concentrations (MICs) were determined according to the Clinical and Laboratory Standards Institute recommendations. […] The experiments were conducted on 96-well microtiter plates, with a final volume of 100 μL. Additionally, in the case of daptomycin, the medium was supplemented with Ca^2+ (50 mg/L). Cell densities were adjusted spectrophotometrically (Multiskan™ GO Microplate Spectrophotometer, Thermo Scientific) at 600 nm. The MICs were taken as the lowest drug concentration at which a visible growth of the microorganisms was inhibited. Minimum biofilm eliminating concentrations (MBECs) were determined on 96-well flat-bottomed microtiter polystyrene plates with resazurin (7-hydroxy-3H-phenoxazin-3-one 10-oxide sodium salt) as a cell viability reagent. To do this, the plates were filled with 100 μL of the initial inoculums of bacteria (0.5 × 10^7 CFU/mL) in the Mueller–Hinton broth and incubated for 24 h at 37 °C. […] After 24 h of incubation, 20 μL of resazurin (4 mg/mL) was added to each well and the MBEC values were read. Minimum biofilm inhibitory concentrations (MBICs) were also determined on 96-well flat-bottomed microtiter polystyrene plates as described previously. To do this, 50 μL of the compounds in the concentration range, diluted MHB, were prepared. Subsequently, the 50 μL of the staphylococcal inoculums were added to reach the same density of bacteria as that in the MBEC assay. After 24 h of incubation at 37 °C, the wells were rinsed three times with PBS and the fresh medium (100 μL) with resazurin (0.6 mg/mL) was added. Then, after 1 h of incubation, MBICs were read. […] All experiments were conducted in triplicate.
(§2) Formation of the biofilm inside the PDMS flow chambers was performed using three peristaltic pumps working simultaneously (LP-pump, Kamush, Lipopharm, Poland) and sterile Tygon® 3350 silicone hoses (2.4 × 0.8 × 0.8 mm) with a length of 30 and 50 cm for inlet and outlet, respectively. Bacterial suspensions were prepared (0.5 × 10^7 CFU/mL) in sterile 50-mL test tubes, which were placed in a heating block at 37 °C. Before experiments, all channels were assessed for tightness and sterilized using a 70% 2-propanol solution (10 min, flow rate 1 mL/min) and rinsed with sterile PBS solution (10 min, flow 0.1 mL/min). The formation of biofilm inside the channels was divided into three stages: (1) adhesion—at this stage S. aureus suspensions were passed through the channels for 4 h at a flow rate of 0.1 mL/min; (2) rinsing—the previously used hoses were replaced with new sterile ones, and the channels were rinsed with sterile PBS solution for 10 min at a flow rate of 0.1 mL/min; (3) biofilm growth—after flushing the channels, the silicone hoses were placed in tubes with MHB medium, which was passed through the channels for 24 h at a flow rate of 0.1 mL/min. All experiments included growth and sterility controls.
(§3) This assay was conducted also on the S. aureus ATCC 25923 and S. aureus 33,591 (MRSA) strains.

[1] = test system: S. aureus ATCC 33591 (MRSA); experiment: microbe, parasite or virus in culture
Text: as §1, §2, §3

[2] = test system: S. aureus clinical strain 004N (MRSA); set-up: method as in earlier work; details: clinical isolate 004N (MRSA), nasal swab; cited from earlier work
[3] = test system: S. aureus clinical strain 005S; set-up: method as in earlier work; details: clinical isolate 005S, skin; cited from earlier work
[4] = test system: S. aureus clinical strain 009S; set-up: method as in earlier work; details: clinical isolate 009S, skin; cited from earlier work
[5] = test system: S. aureus clinical strain 015N (MRSA); set-up: method as in earlier work; details: clinical isolate 015N (MRSA), nasal swab; cited from earlier work
[6] = test system: S. aureus clinical strain 030N; set-up: method as in earlier work; details: clinical isolate 030N, nasal swab; cited from earlier work
[7] = test system: S. aureus clinical strain 031S; set-up: method as in earlier work; details: clinical isolate 031S, skin; cited from earlier work
[8] = test system: S. aureus clinical strain 043SC (MRSA); set-up: method as in earlier work; details: clinical isolate 043SC (MRSA), skin of patient with furuncle folliculitis; cited from earlier work
[9] = test system: S. aureus clinical strain 051N (MRSA); set-up: method as in earlier work; details: clinical isolate 051N (MRSA), nasal swab; cited from earlier work
[10] = test system: S. aureus clinical strain 060S; set-up: method as in earlier work; details: clinical isolate 060S, skin; cited from earlier work
[11] = S. aureus ATCC 33591 (MRSA) biofilm treated under flow with Retro-Omiganan (half MBEC) for 48 h

CCCCCCCCCC(=O)N[C@@H](Cc1c[nH]c2ccccc12)C(=O)N[C@H](CC(N)=O)C(=O)N[C@@H](CC(=O)O)C(=O)N[C@@H]1C(=O)NCC(=O)N[C@@H](CCCN)C(=O)N[C@@H](CC(=O)O)C(=O)N[C@H](C)C(=O)N[C@@H](CC(=O)O)C(=O)NCC(=O)N[C@H](CO)C(=O)N[C@@H]([C@H](C)CC(=O)O)C(=O)N[C@@H](CC(=O)c2ccccc2N)C(=O)O[C@@H]1C [Daptomycin]
MIC (S. aureus ATCC 25923; Staphylococcus aureus, ATCC25923, 0 h, S. aureus 25923, time 0 h (baseline, before peptide exposure)): 2 mg/L (≈ 1.23 µM) | MIC (S. aureus ATCC 25923; Staphylococcus aureus, ATCC25923, 24 h, S. aureus 25923 biofilm treated under flow with Omiganan (half MBEC) for 24 h): 2 mg/L (≈ 1.23 µM) | MIC (S. aureus ATCC 25923; Staphylococcus aureus, ATCC25923, 24 h, S. aureus 25923 biofilm treated under flow with Retro-Omiganan (half MBEC) for 24 h): 1 mg/L (≈ 0.617 µM) | MIC (S. aureus ATCC 25923; Staphylococcus aureus, ATCC25923, 48 h, S. aureus 25923 biofilm treated under flow with Omiganan (half MBEC) for 48 h): 2 mg/L (≈ 1.23 µM) | MIC (S. aureus ATCC 25923; Staphylococcus aureus, ATCC25923, 48 h, S. aureus 25923 biofilm treated under flow with Retro-Omiganan (half MBEC) for 48 h): 1 mg/L (≈ 0.617 µM) | MIC (S. aureus ATCC 25923; Staphylococcus aureus, ATCC25923, 72 h, S. aureus 25923 biofilm treated under flow with Omiganan (half MBEC) for 72 h): 2 mg/L (≈ 1.23 µM) | MIC (S. aureus ATCC 25923; Staphylococcus aureus, ATCC25923, 72 h, S. aureus 25923 biofilm treated under flow with Retro-Omiganan (half MBEC) for 72 h): 1 mg/L (≈ 0.617 µM) | MIC [1, 11]: 1 mg/L (≈ 0.617 µM) | MIC ([1]; S. aureus ATCC 33591 (MRSA), time 0 h (baseline, before peptide exposure)): 2 mg/L (≈ 1.23 µM) | MIC ([1]; Staphylococcus aureus, ATCC33591|MRSA, 0 h, S. aureus ATCC 33591 (MRSA), time 0 h (baseline, before peptide exposure)): 2 mg/L (≈ 1.23 µM) | MIC ([1]; Staphylococcus aureus, ATCC33591|MRSA, 24 h, S. aureus ATCC 33591 (MRSA) biofilm treated under flow with Omiganan (half MBEC) for 24 h): 2 mg/L (≈ 1.23 µM) | MIC ([1]; Staphylococcus aureus, ATCC33591|MRSA, 24 h, S. aureus ATCC 33591 (MRSA) biofilm treated under flow with Retro-Omiganan (half MBEC) for 24 h): 2 mg/L (≈ 1.23 µM) | MIC ([1]; Staphylococcus aureus, ATCC33591|MRSA, 48 h, S. aureus ATCC 33591 (MRSA) biofilm treated under flow with Omiganan (half MBEC) for 48 h): 2 mg/L (≈ 1.23 µM) | MIC ([1]; Staphylococcus aureus, ATCC33591|MRSA, 48 h, S. aureus ATCC 33591 (MRSA) biofilm treated under flow with Retro-Omiganan (half MBEC) for 48 h): 1 mg/L (≈ 0.617 µM) | MIC ([1]; Staphylococcus aureus, ATCC33591|MRSA, 72 h, S. aureus ATCC 33591 (MRSA) biofilm treated under flow with Omiganan (half MBEC) for 72 h): 2 mg/L (≈ 1.23 µM) | MIC ([1]; Staphylococcus aureus, ATCC33591|MRSA, 72 h, S. aureus ATCC 33591 (MRSA) biofilm treated under flow with Retro-Omiganan (half MBEC) for 72 h): 1 mg/L (≈ 0.617 µM) | Antimicrobial susceptibility (MIC) [2]: 2 mg/L | Antimicrobial susceptibility (MIC) [3]: 4 mg/L | Antimicrobial susceptibility (MIC) [4]: 0.5 mg/L | Antimicrobial susceptibility (MIC) [5]: 2 mg/L | Antimicrobial susceptibility (MIC) [6]: 0.125 mg/L | Antimicrobial susceptibility (MIC) [7]: 0.125 mg/L | Antimicrobial susceptibility (MIC) [8]: 1 mg/L | Antimicrobial susceptibility (MIC) [9]: 2 mg/L | Antimicrobial susceptibility (MIC) [10]: 0.125 mg/L

CC(=O)NC[C@H]1CN(c2ccc(N3CCOCC3)c(F)c2)C(=O)O1 [Linezolid]
MIC (S. aureus ATCC 25923; S. aureus 25923 biofilm treated under flow with Retro-Omiganan (half MBEC) for 24 h): 1.0 mg/L (≈ 2.96 µM) | MIC (S. aureus ATCC 25923; S. aureus 25923 biofilm treated under flow with Retro-Omiganan (half MBEC) for 48 h): 1.0 mg/L (≈ 2.96 µM) | MIC (S. aureus ATCC 25923; S. aureus 25923 biofilm treated under flow with Retro-Omiganan (half MBEC) for 72 h): 1.0 mg/L (≈ 2.96 µM) | MIC (S. aureus ATCC 25923; Staphylococcus aureus, ATCC25923, 0 h): 1 mg/L (≈ 2.96 µM) | MIC (S. aureus ATCC 25923; Staphylococcus aureus, ATCC25923, 24 h): 1 mg/L (≈ 2.96 µM) | MIC (S. aureus ATCC 25923; Staphylococcus aureus, ATCC25923, 48 h): 1 mg/L (≈ 2.96 µM) | MIC (S. aureus ATCC 25923; Staphylococcus aureus, ATCC25923, 72 h): 1 mg/L (≈ 2.96 µM) | MIC ([1]; S. aureus ATCC 33591 (MRSA) biofilm treated under flow with Retro-Omiganan (half MBEC) for 24 h): 1.0 mg/L (≈ 2.96 µM) | MIC [1, 11]: 1.0 mg/L (≈ 2.96 µM) | MIC ([1]; S. aureus ATCC 33591 (MRSA) biofilm treated under flow with Retro-Omiganan (half MBEC) for 72 h): 1.0 mg/L (≈ 2.96 µM) | MIC ([1]; Staphylococcus aureus, 0 h): 1 mg/L (≈ 2.96 µM) | MIC ([1]; Staphylococcus aureus, 24 h): 1 mg/L (≈ 2.96 µM) | MIC ([1]; Staphylococcus aureus, 48 h): 1 mg/L (≈ 2.96 µM) | MIC ([1]; Staphylococcus aureus, 72 h): 1 mg/L (≈ 2.96 µM) | Antimicrobial susceptibility (MIC) [2]: 1 mg/L | Antimicrobial susceptibility (MIC) [3]: 0.5 mg/L | Antimicrobial susceptibility (MIC) [4]: 0.25 mg/L | Antimicrobial susceptibility (MIC) [5]: 2 mg/L | Antimicrobial susceptibility (MIC) [6]: 0.5 mg/L | Antimicrobial susceptibility (MIC) [7]: 2 mg/L | Antimicrobial susceptibility (MIC) [8]: 2 mg/L | Antimicrobial susceptibility (MIC) [9]: 2 mg/L | Antimicrobial susceptibility (MIC) [10]: 1 mg/L

From article PMC12055641, “The Study of Antistaphylococcal Potential of Omiganan and Retro-Omiganan Under Flow Conditions” (Probiotics and Antimicrobial Proteins, 2024)
